# Laboratory results published in patent US10426755B2, “Methods for inhibiting cancer cells” (Chang Gung Memorial Hospital, Chiayi, priority 2015, dated 2019).
# “Also recorded” adds a separate entry of the source.
# How the values were obtained:
# Format in all cases: cell-based
# [1] = tested on: CCL2 in THP1 cells/22RV1 co-culture; experiment: CCL2 ELISA, THP1/22RV1 co-culture; details: DT-treated monocyte/22RV1 co-culture medium; 5 or 10 μM DT, 24 hours; FIG. 15 (b)
# Description: As illustrated in Example 10, the production of CCL2 was inhibited by DT in both prostate cancer cells and macrophage, the effect of DT on monocyte/cancer cell co-culture and macrophage/cancer cell co-culture was examined using the invasion assay described in Example 9. • (a) THP1 monocytes, Raw264.7 macrophage, monocyte/prostate cancer co-culture and macrophage/prostate cancer co-culture were treated with a vehicle (DMSO), 5 or 10 μM DT for 24 hours, the cultured medium was collected and placed into the lower chamber of a transwell plate. • (b) Prostate cancer cells (PC3, DU145 and 22RV1) were placed in the cell invasion assay). The level of CCL2 in the invasion assay was measured by ELIZA method.
# [2] = tested on: breast cancer cells (MCF-7, tamoxifen-resistant MCF7 and MDA MB-231); experiment: Annexin V/PI flow cytometry apoptosis/necrosis, breast cancer cells; details: 10 or 20 μM DT, 24-48 hours, vs PBS and control; time dependent; FIG. 8
# Description: The effect of DT on metastatic prostate cancer cells (hormone therapy-resistant PC3, DU145 and LNCaP); lung cancer cells (A549 and chemotherapy-resistant/metastatic H460); and breast cancer cells (MCF-7, tamoxifen-resistant MCF7 and MDA MB-231) was assessed.
# 1×10^6 Cancer cells were seeded in a 100-mm plate and cultured overnight. The cancer cells were treated with phosphate buffered saline (PBS), a Dimethyl sulfoxide (DMSO) vehicle (CT), 10 or 20 μM of DT for 24-48 hours, then collected and washed with cold PBS. The supernatant was removed by centrifugation and resuspended in FITC Annexin V binding buffer and Propidium iodide (PI) (Annexin V-FITC Apoptosis Detection Kit, commercially available from Strong Biotech Corporation, Taiwan). The suspended cancer cells were stained at room temperature, in the dark for 15 min and analyzed by the BD FACSCanto™ flow cytometry (Becton Dickinson, USA). The amount of early apoptosis, late apoptosis, and necrosis was measured as the percentage of annexin-V positive/PI negative (Q4 in the FACS images), annexin-V positive/PI positive (Q2 in the FACS images), and annexin-V negative/PI positive cells (Q1 in the FACS images), respectively. Normal cells are in […] of the FACS images.
# [3] = tested on: skp2 and downstream genes in A549 and H460 lung cancer cells; experiment: skp2 and downstream gene mRNA expression, lung cancer cells; details: various concentrations of DT vs DMSO, FIG. 10 (c)-(f)
# Description: It has been reported that skp2 plays an important role in the metastasis of cancer cells. An in vitro evaluation of the effect of DT on prostate cancer cell metastasis was performed, by measuring the mRNA expression of skp2 in the following prostate cancer cell lines: meatstatic DU145 cells (Panels i-j of FIG. 9), hormone therapy resistant and metastatic PC3 cells (Panel h of FIG. 9), and 22RV1 cells (Panels k-l of FIG. 9), A549 lung cancer cells (Panels (c)-(e) of FIG. 10), chemotherapy-resistant/metastatic H460 lung cancer cells (Panels (d) and (f) of FIG. 10), HCT116 colon cancer cells (Panels (g) and (i) of FIG. 10) and MCF7-tamoxifen resistant breast cancer cells (Panels (h) and (j) of FIG. 10) […].
# The cancer cells were treated with DMSO and various concentrations of DT.
# [4] = tested on: macrophages with prostate cancer cells (DU145 or PC3); experiment: Macrophage migration in invasive assay with DT-treated prostate cancer cells; details: DT-treated vs untreated DU145 and PC3 cells; images not shown
# Description: An in vitro study to evaluate the effect of DT on macrophage and cancer cell migration was performed.
# Macrophages were treated with a vehicle (DMSO), 5 or 10 μM DT. The mobility of the macrophages was not affected by DT. The macrophages were placed in an invasive assay, prepared accordingly to the steps in Example 10 using DT-treated prostate cancer cells (DU145 or PC3) incubated in 10% CD-FBS RPMI medium.
# [5] = tested on: tamoxifen-resistant MCF-7 breast cancer cells; experiment: XTT proliferation assay, tamoxifen-resistant MCF-7; details: 1-3 days, Panel (c) of FIG. 3
# Description: (§1) The prostate cancer cells were plated at a density of 10^3 or 3×10^3 per well, in a 96-well plate, in a medium containing 10% Fetal bovine serum (FBS) (Gibco®, commercially available from Life Technologies, USA). Once the prostate cancer cells were attached to the culture dish, the 10% FBS medium was replaced with a second 10% FBS medium and each of the prostate cancer cell line was treated with 1, 5, and 10 μM of DT respectively for 1-2 days. The absorbance was measured using XTT assay kit (commercially available from Roche, Switzerland) at 492 nm using an ELISA reader (Bio-Rad Laboratories, USA).
# (§2) An in vitro evaluation of the effect of DT on the breast cancer cells was performed. The breast cancer cell lines, MDA-MB-231, MCF-7 and tamoxifen-resistant MCF-7 breast cancer cells were obtained from Bioresource Collection and Research Center, Taiwan. The breast cancer cells were cultured in Eagle's Minimum Essential Medium containing 10% charcoal-stripped fetal bovine serum and plated according to the steps in Example 1 and each of the breast cancer cell line was treated with 0 (control), 5, 10 and 20 μM of DT, respectively for 1-3 days. The absorbance was measured using XTT assay kit at 492 nm using an ELISA reader.
# [6] = tested on: breast cancer cell lines (MDA-MB-231, MCF-7 and tamoxifen-resistant MCF-7); experiment: XTT proliferation assay, breast cancer cells; details: 0, 5, 10 and 20 μM DT, 1-3 days, FIG. 3
# Description: as §1, §2
# [7] = tested on: chemotherapy-resistant colorectal cancer cells (HCT116); experiment: XTT proliferation assay, colorectal cancer cells; details: 1, 5 and 10 μM DT, 1-3 days, FIG. 5
# Description: as §1
# An in vitro evaluation of the effect of DT on the chemotherapy-resistant colorectal cancer cells was performed. The chemotherapy-resistant colorectal cancer cells (HCT116) were obtained from Dr. K D Lee at Chang Gung Memorial Hospital, Chiayi, Taiwan. The colorectal cancer cells were cultured and plated according to the steps in Example 1 and treated with 0 (control), 1, 5 and 10 μM of DT, respectively for 1-3 days. The absorbance was measured using XTT assay kit at 492 nm using an ELISA reader.
smiles,measurement,setting,value
"Cc1cccc2c3c(ccc12)C(=O)C1=C(OCC1C)C3=O (stereo not shown) [DT, dihydroisotanshinone I]",concentration of CCL2,[1],significantly reduced
same,"early apoptosis, late apoptosis and necrosis, breast cancer cells",[2],"more early apoptosis, late apoptosis and necrosis"
same,"mRNA expression of skp2 and its downstream genes, lung cancer",[3],"effectively inhibit mRNA expression of skp2 and its downstream genes; also recorded: reduces skps and its downstream genes, MMP2, MMP9 and E-cadherin"
same,macrophage migration induced by prostate cancer cells,[4],inhibit macrophage migration
same,dose of DT required for inhibiting tamoxifen-resistant MCF-7 cells,[5],> 1 µM
same,inhibition of breast cancer cells (proliferation),[6],"effective in inhibiting breast cancer cells, even for the tamoxifen-resistant MCF-7 breast cancer cells, in a dose dependent and time dependent fashion"
same,inhibition of chemotherapy-resistant colorectal cancer cells,[7],effective in inhibiting chemotherapy-resistant colorectal cancer cells in a dose dependent manner
